In ChEMBL document CHEMBL1145137, “Design, synthesis, and crystal structure of selective 2-pyridone tissue factor VIIa inhibitors” (J Med Chem, 2003):

How the values were obtained:
Coagulation factor VII = biological target: T1, Coagulation factor VII (Homo sapiens, UniProt P08709); test: Inhibitory concentration against recombinant human coagulation factor VII
T1 sequence (P08709 whole entry): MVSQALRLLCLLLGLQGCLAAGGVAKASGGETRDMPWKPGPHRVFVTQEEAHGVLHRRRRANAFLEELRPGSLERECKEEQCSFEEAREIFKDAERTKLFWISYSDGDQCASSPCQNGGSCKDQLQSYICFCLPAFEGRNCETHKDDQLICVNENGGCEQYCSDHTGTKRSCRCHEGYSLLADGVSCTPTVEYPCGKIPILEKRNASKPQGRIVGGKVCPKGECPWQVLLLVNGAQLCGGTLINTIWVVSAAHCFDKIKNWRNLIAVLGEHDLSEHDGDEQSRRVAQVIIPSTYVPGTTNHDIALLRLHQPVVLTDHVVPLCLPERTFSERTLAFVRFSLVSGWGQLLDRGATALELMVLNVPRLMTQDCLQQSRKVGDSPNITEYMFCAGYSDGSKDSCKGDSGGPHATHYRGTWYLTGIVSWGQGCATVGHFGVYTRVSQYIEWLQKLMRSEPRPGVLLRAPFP

Coagulation factor X = Coagulation factor X (Homo sapiens, UniProt P00742); test: Inhibitory concentration against human Coagulation factor X
Prothrombin = Prothrombin (Homo sapiens, UniProt P00734); test: Inhibitory concentration against human thrombin

Coagulation factor X, sequence (P00742 41-179 limits assumed): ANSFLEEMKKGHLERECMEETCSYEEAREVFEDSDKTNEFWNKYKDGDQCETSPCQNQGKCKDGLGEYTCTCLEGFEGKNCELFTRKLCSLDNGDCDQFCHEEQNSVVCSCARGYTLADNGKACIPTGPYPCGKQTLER
Coagulation factor X, sequence (P00742 235-488 limits assumed): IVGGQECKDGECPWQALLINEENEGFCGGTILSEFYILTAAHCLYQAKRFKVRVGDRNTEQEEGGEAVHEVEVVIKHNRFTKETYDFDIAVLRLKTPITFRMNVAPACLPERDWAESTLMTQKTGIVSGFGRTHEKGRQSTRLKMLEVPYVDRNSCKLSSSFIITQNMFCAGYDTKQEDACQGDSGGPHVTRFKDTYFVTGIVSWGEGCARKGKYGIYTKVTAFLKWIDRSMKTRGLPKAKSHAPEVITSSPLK

Structure (SMILES) | IC50 (Coagulation factor VII) [nM] | IC50 (Coagulation factor X) [nM] | IC50 (Prothrombin) [nM]
CC(C)Nc1ccc(-c2cc(N)cc(C(=O)O)c2)n(CC(=O)NCc2ccc(C(=N)N)cc2)c1=O | 118 | > 30000 | > 30000
CC(C)Nc1ccc(-c2cc(N)cc(N)c2)n(CC(=O)NCc2ccc(C(=N)N)cc2)c1=O | 52 | – | –
